The values below come from patent US20240173289A1, “USE OF OXYMETHYL-MODIFIED DERIVATIVE OF QUERCETIN IN PREPARATION OF DRUG FOR INHIBITING TUMOR CELL PROLIFERATION” (ZHEJIANG UNIVERSITY, priority 2021, published 2024).

Holding throughout (assay): in vitro cell proliferation inhibition (CCK-8)
What all share (assay type): cell-based

Experiment [1] deals with gastric cancer cell line AGS. As to conditions: 48 h incubation, read-out: IC50.
Excerpt: (§1) Osteosarcoma cell line 143B, HOS, and U2, liver cancer cell line HepG2, breast cancer cell line MDA-MB-231 and T47D, gastric cancer cell line AGS, BGC-823, and SGC-7901, cervical cancer cells Hela, lung cancer cells A549, intestinal cancer cells Caco2, mouse glioma cells BV-2, human prostate cancer cells PC3, human thyroid cancer cell line BCPAP, human normal liver cell line L02, human normal gastric cell line GES, human umbilical vein epithelial cells HUVEC, and human embryonic lung fibroblasts WI-38 were cultured in a DMEM medium containing 10% fetal bovine serum and 1×HEPES in a humid incubator (37° C., 5% CO2). The cells were passaged with trypsin-EDTA in logarithmic phase. Certain density of cells (AGS, T47D, Caco2, BCPAP, GES, HUVEC 1×10^5 cells per well; HepG2, MDA-MB-231, BGC-823, A549, PC3, L02 8×10^4 cells per well; 143B, HOS, U2, SGC-7901, Hela, BV-2, 5×10^4 cells per well; WI-38, 3×10^5 cells per well) were inoculated in a 96-well plate, and cultured for 24 h before treatment. After replacing a fresh medium, 12.5 mg/L to 400 mg/L of quercetin, quercetin 3-methyl ether, and quercetin 3,3′-dimethyl ether dissolved with DMSO were added into the medium (a final volume ratio was 0.1%, and the DMSO was used as a […]). After incubation for 48 h, a complete medium was replaced with a serum-free medium containing 10% CCK-8 reagent. The absorbance at 450 nm and 620 nm was measured separately after the cells were incubated for 1 h. Each experiment was repeated three times independently.
as §1, with “400 mg/L,” for “400 mg/L”, “of” for “of quercetin, quercetin 3-methyl ether, and”, “DMSO was” for “DMSO were”, “into a” for “into the”

In experiment [2] the test system is Osteosarcoma cell line U2. As to conditions: 48 h incubation, read-out: IC50.
Excerpt: as §1
as §1, with “400 mg/L,” for “400 mg/L”, “of” for “of quercetin, quercetin 3-methyl ether, and”, “DMSO was” for “DMSO were”, “into a” for “into the”

The test system of a further experiment is mouse glioma cells BV-2. The note with it: Mus musculus, Glioma cell, BV2, 48 h incubation, read-out: IC50.
Excerpt: as §1
as §1, with “400 mg/L,” for “400 mg/L”, “of” for “of quercetin, quercetin 3-methyl ether, and”, “DMSO was” for “DMSO were”, “into a” for “into the”

In experiment [3] the test system is breast cancer cell line T47D. The note with it: Homo sapiens, 48 h incubation, read-out: IC50.
Excerpt: as §1
as §1, with “400 mg/L,” for “400 mg/L”, “of” for “of quercetin, quercetin 3-methyl ether, and”, “DMSO was” for “DMSO were”, “into a” for “into the”

Experiment [4] concerns liver cancer cell line HepG2. The note with it: Homo sapiens, 48 h incubation, read-out: IC50.
Excerpt: as §1
as §1, with “400 mg/L,” for “400 mg/L”, “of” for “of quercetin, quercetin 3-methyl ether, and”, “DMSO was” for “DMSO were”, “into a” for “into the”

The test system of a further experiment is lung cancer cells A549. As to conditions: Homo sapiens, 48 h incubation, read-out: IC50.
Excerpt: as §1
as §1, with “400 mg/L,” for “400 mg/L”, “of” for “of quercetin, quercetin 3-methyl ether, and”, “DMSO was” for “DMSO were”, “into a” for “into the”

Experiment [5] relates to human prostate cancer cells PC3. The note with it: Homo sapiens, 48 h incubation, read-out: IC50.
Excerpt: as §1
as §1, with “400 mg/L,” for “400 mg/L”, “of” for “of quercetin, quercetin 3-methyl ether, and”, “DMSO was” for “DMSO were”, “into a” for “into the”

Experiment [6] concerns human thyroid cancer cell line BCPAP. As to conditions: Homo sapiens, 48 h incubation, read-out: IC50.
Excerpt: as §1
as §1, with “400 mg/L,” for “400 mg/L”, “of” for “of quercetin, quercetin 3-methyl ether, and”, “DMSO was” for “DMSO were”, “into a” for “into the”

Experiment [7] deals with cervical cancer cells Hela. The note with it: Homo sapiens, 48 h incubation, read-out: IC50.
Excerpt: as §1
as §1, with “400 mg/L,” for “400 mg/L”, “of” for “of quercetin, quercetin 3-methyl ether, and”, “DMSO was” for “DMSO were”, “into a” for “into the”

Experiment [8] concerns intestinal cancer cells Caco2. As to conditions: Homo sapiens, Caco-2, 48 h incubation, read-out: IC50.
Excerpt: as §1
as §1, with “400 mg/L,” for “400 mg/L”, “of” for “of quercetin, quercetin 3-methyl ether, and”, “DMSO was” for “DMSO were”, “into a” for “into the”

The test system of experiment [9] is Osteosarcoma cell line 143B. As to conditions: Homo sapiens, 48 h incubation, read-out: IC50.
Excerpt: as §1
as §1, with “400 mg/L,” for “400 mg/L”, “of” for “of quercetin, quercetin 3-methyl ether, and”, “DMSO was” for “DMSO were”, “into a” for “into the”

Experiment [10] deals with gastric cancer cell line BGC-823. The note with it: Homo sapiens, BGC-823, BGC823, 48 h incubation, read-out: IC50.
Excerpt: as §1
as §1, with “400 mg/L,” for “400 mg/L”, “of” for “of quercetin, quercetin 3-methyl ether, and”, “DMSO was” for “DMSO were”, “into a” for “into the”

Experiment [11] has as its system Osteosarcoma cell line HOS. The note with it: 48 h incubation, read-out: IC50.
Excerpt: as §1
as §1, with “400 mg/L,” for “400 mg/L”, “of” for “of quercetin, quercetin 3-methyl ether, and”, “DMSO was” for “DMSO were”, “into a” for “into the”

The test system of experiment [12] is gastric cancer cell line SGC-7901. The note with it: Homo sapiens, SGC-7901, SGC7901, 48 h incubation, read-out: IC50.
Excerpt: as §1
as §1, with “400 mg/L,” for “400 mg/L”, “of” for “of quercetin, quercetin 3-methyl ether, and”, “DMSO was” for “DMSO were”, “into a” for “into the”

For experiment [13], the system named is breast cancer cell line MDA-MB-231. As to conditions: Homo sapiens, 48 h incubation, read-out: IC50.
Excerpt: as §1
as §1, with “400 mg/L,” for “400 mg/L”, “of” for “of quercetin, quercetin 3-methyl ether, and”, “DMSO was” for “DMSO were”, “into a” for “into the”

Converted amounts (≈) assume the structure as drawn.

By IC50 is commonly meant the concentration that gives 50% inhibition. Consider `COc1cc(-c2oc3cc(O)cc(O)c3c(=O)c2OC)ccc1O` [Quercetin 3,3′-dimethyl ether, quercetin 3,3′-dimethyl ether], for which the IC50 in [1] came out at 15.8 µg/mL (≈ 47.9 µM); in experiment [2], 49.5 µg/mL (≈ 150 µM); in the experiment on mouse glioma cells BV-2, 21.1 µg/mL (≈ 63.9 µM); in experiment [3], 13.3 µg/mL (≈ 40.4 µM); in [4], 5.85 µg/mL (≈ 17.7 µM); with lung cancer cells A549 it was 17.4 µg/mL (≈ 52.6 µM). Besides, the IC50 was 31.3 µg/mL (≈ 94.7 µM) in experiment [5]; 12.3 µg/mL (≈ 37.2 µM) in experiment [6]; 11.1 µg/mL (≈ 33.7 µM) in experiment [7]; 21.4 µg/mL (≈ 64.8 µM) in experiment [8]; 21.6 µg/mL (≈ 65.5 µM) in [9]; 26.1 µg/mL (≈ 78.9 µM) in experiment [10]. Also, the IC50 in [11] stood at 18.6 µg/mL (≈ 56.3 µM); in [12], 28.4 µg/mL (≈ 85.9 µM); in experiment [13], 11.4 µg/mL (≈ 34.5 µM).
